Laboratory results as given in PMC10384562, “Synthesis and Structure Determination of Substituted Thiazole Derivatives as EGFR/BRAF^V600E Dual Inhibitors Endowed with Antiproliferative Activity” (Pharmaceuticals, 2023).

Key:
EGFR = target: T1, EGFR (Homo sapiens, UniProt P00533); experiment: EGFR-TK inhibitory assay; format: biochemical; conditions: for fold less potent than erlotinib (EGFR IC50): ratio of EGFR IC50 to that of erlotinib; for IC50: read-out: EGFR Inhibition IC50 ± SEM
T1 construct: CD, amino acids 645–1186); His6 (N); made in house; host or cells: Sf-9 insect cells (baculovirus; pBlueBacHis2B / pFASTBacHTc
Method: 4.2.2. EGFR inhibitory assay
Baculoviral expression vectors including pBlueBacHis2B and pFASTBacHTc were […]
5ʹ upstream to the EGFR sequence comprised a sequence that encoded (His)6. Sf-9 cells were infected for 72h for protein expression. The pellets of Sf-9 cells were solubilized in a buffer containing sodium vanadate (100 μM), aprotinin (10 μg/mL), triton (1%), HEPES buffer(50mM), ammonium molybdate (10 μM), benzamidine HCl (16 μg/mL), NaCl (10 mM),leupeptin (10 μg/mL) and pepstatin (10 μg/mL) at 0°C for 20 min at pH 7.4, followed by centrifugation for 20 min. To eliminate the nonspecifically bound material, a Ni-NTA super flow packed column was used to pass through and wash the crude extract supernatant first with 10mM and then with 100 mM imidazole. Histidine-linked proteins were first eluted with 250 and then with 500 mM imidazole subsequent to dialysis against NaCl (50 mM), HEPES (20 mM), glycerol (10%) and 1 μg/mL each of aprotinin, leupeptin and pepstatin for 120 min. The purification was performed either at 4 °C or on ice. To record autophosphorylation level, EGFR kinase assay was carried out on the basis of DELFIA/Time-Resolved Fluorometry. The compounds were first dissolved in DMSO […]
pH 7.4. Each compound (10 μL) was incubated with recombinant enzyme (10 μL, 5 ng for EGFR, 1:80 dilution in 100 mM HEPES) for 10 min at 25 °C, subsequent to the addition of 5X buffer (10 μL, containing 2 mM MnCl2, 100 μM Na3VO4, 20 mM HEPES and 1 mM DTT) and ATP-MgCl2 (20 μL, containing 0.1 mM ATP and 50 mM MgCl2) and incubation for 1h. The negative and positive controls were included in each plate by the incubation of enzyme either with or without ATP-MgCl2. The liquid was removed after incubation and the plates were washed thrice using wash buffer.
Europium-tagged antiphosphotyrosine antibody (75 μL, 400 ng) was added to each well followed by incubation of 1h and then washing of the plates using buffer. The enhancement solution was added to each well and the signal was recorded at excitation […]
The autophosphorylation percentage inhibition by compounds was calculated using the following equation: […]

[1] = test system: colon cancer (HT-29) cell line; experiment: Antiproliferative assay, HT-29; format: cell-based; conditions: Homo sapiens; HT-29 colon cancer cells; read-out: Antiproliferative Activity IC50 ± SEM, HT-29
Method: (§1) 4.2.1.2. Assay for antiproliferative effect
(§2) To explore the antiproliferative potential of compounds propidium iodide fluorescence assay was performed using different cell lines such as Panc-1 (pancreas cancer cell line), MCF-7 (breast cancer cell line), HT-29 (colon cancer cell line) and A-549 (epithelial cancer cell line), respectively. To calculate the total nuclear DNA, a fluorescent dye (propidium iodide, PI) is used which can attach to the DNA, thus offering a quick and precise technique. PI cannot pass through the cell membrane and its signal intensity can be considered as directly proportional to quantity of cellular
(§3) DNA. Cells whose cell membranes are damaged or have changed permeability are counted as dead ones. The assay was performed by seeding the cells of different cell lines at a density of 3000-7500 cells/well (in200μl medium) in culture plates followed by incubation for 24h at 37 °C in humidified 5%CO2/95% air atmospheric conditions.
(§4) The medium was removed; the compounds were added to the plates at 10 μM concentrations (in 0.1% DMSO) in triplicates, followed by incubation for 48h. DMSO (0.1%) was used as control. After incubation, medium was removed followed by the addition of PI (25 μl, 50μg/mL in water/medium) to each well of the plates. At -80 °C, the plates were allowed to freeze for 24 h, followed by thawing at 25 °C. A fluorometer (Polar-Star BMG Tech) was used to record the readings at excitation and emission wavelengths of 530 and 620 nm for each well. The percentage cytotoxicity of compounds was calculated using the following formula:
(§5) Where ATC= Absorbance of treated cells and AC= Absorbance of control. Erlotinib was used as positive control in the assay.

[2] = test system: four human cancer cell lines (A-549, MCF-7, Panc-1, HT-29); experiment: Antiproliferative assay, average over four cancer cell lines (GI50); format: cell-based; conditions: for IC50: average IC50 (GI50) over A-549, MCF-7, Panc-1, HT-29; for fold less potent than compound 3f (GI50): ratio of GI50 to that of 3f
Method: as §1
To explore the antiproliferative potential of compounds propidium iodide fluorescence assay was performed using different cell lines such as Panc-1 (pancreas cancer cell […]
(epithelial cancer cell line), respectively. To calculate the total nuclear DNA, a fluorescent dye (propidium iodide, PI) is used which can attach to the DNA, thus offering a quick and precise technique. PI cannot pass through the cell membrane and its signal intensity can be considered as directly proportional to quantity of cellular
DNA. Cells whose cell membranes are damaged or have changed permeability are counted as dead ones. The assay was performed by seeding the cells of different cell lines at a density of 3000-7500 cells/well (in200μl medium) in culture plates followed […]
as §4
Where ATC= Absorbance of treated cells and AC= Absorbance of control. […]
was used as positive control in the assay.
(§6) (1 picture or pasted object on this page, not shown here)

[3] = test system: lung cancer (A-549) cell line; experiment: Antiproliferative assay, A-549; format: cell-based; conditions: Homo sapiens, A549; A-549 lung cancer cells; read-out: Antiproliferative Activity IC50 ± SEM, A-549
Method: as §1, §2, §3, §4, §5, §6

[4] = Cell viability assay (MTT) on normal mammary epithelial cells; conditions: human, MCF-10A mammary gland epithelial cells
[5] = test system: pancreatic cancer (Panc-1) cell line; experiment: Antiproliferative assay, Panc-1; format: cell-based; conditions: Homo sapiens; Panc-1 pancreatic cancer cells; read-out: Antiproliferative Activity IC50 ± SEM, Panc-1
Method: as §1, §2, §3, §4, §5

BRAF^V600E = target: T2, BRAF^V600E (Mus musculus, UniProt P28028, V585E); experiment: BRAF^V600E inhibitory assay; format: biochemical; conditions: read-out: BRAF^V600E Inhibition IC50 ± SEM
T2 construct: Mouse full-length GST-tagged BRAFV600E (7.5 ng,; GST; purchased Invitrogen PV3849
Method: See Supplementary Information. […]
4.2.3. BRAFV600E inhibitory assay
V600E mutant BRAF kinase assay was performed to investigate the activity of tested compounds against BRAF. Mouse full-length GST-tagged BRAFV600E (7.5 ng, Invitrogen, PV3849) was pre-incubated with drug (1 µL) and assay dilution buffer (4 µL) for 60 min at 25 °C. In assay dilution buffer, a solution (5 µL) containing MgCl2 (30 mM), ATP (200 µM), recombinant human full length (200 ng) […] N-terminal His-tagged MEK1 (Invitrogen) was added to start the assay, subsequent to incubation for 25 min at 25 °C. The assay was stopped using 5X protein denaturing buffer (LDS) solution (5 µL). To further denature the protein, heat (70° C) was applied for 5 min. 4- […]
200 V). 10 µL of each reaction was loaded into the precast plates and electrophoresis was allowed to proceed. After completion of electrophoresis, the front part of the precast gel plate (holding hot ATP) was cut and afterwards cast-off. The dried gel was developed using a phosphor screen. A reaction without active enzyme was used as negative control while that containing no inhibitor served as positive control. […]
4.3. Statistical analysis
Computerized Prism 5 program was used to statistically analyzed data using one-way ANOVA test followed by Tukey’s as post ANOVA for multiple comparison at P ≤.05.
Data were presented as mean ± SEM.

[6] = test system: breast cancer (MCF-7) cell line; experiment: Antiproliferative assay, MCF-7; format: cell-based; conditions: Homo sapiens, MCF7; MCF-7 breast cancer cells; read-out: Antiproliferative Activity IC50 ± SEM, MCF-7
Method: as §1, §2, §3, §4, §5

in vitro = conditions: human

T1 sequence (P00533 669-1210): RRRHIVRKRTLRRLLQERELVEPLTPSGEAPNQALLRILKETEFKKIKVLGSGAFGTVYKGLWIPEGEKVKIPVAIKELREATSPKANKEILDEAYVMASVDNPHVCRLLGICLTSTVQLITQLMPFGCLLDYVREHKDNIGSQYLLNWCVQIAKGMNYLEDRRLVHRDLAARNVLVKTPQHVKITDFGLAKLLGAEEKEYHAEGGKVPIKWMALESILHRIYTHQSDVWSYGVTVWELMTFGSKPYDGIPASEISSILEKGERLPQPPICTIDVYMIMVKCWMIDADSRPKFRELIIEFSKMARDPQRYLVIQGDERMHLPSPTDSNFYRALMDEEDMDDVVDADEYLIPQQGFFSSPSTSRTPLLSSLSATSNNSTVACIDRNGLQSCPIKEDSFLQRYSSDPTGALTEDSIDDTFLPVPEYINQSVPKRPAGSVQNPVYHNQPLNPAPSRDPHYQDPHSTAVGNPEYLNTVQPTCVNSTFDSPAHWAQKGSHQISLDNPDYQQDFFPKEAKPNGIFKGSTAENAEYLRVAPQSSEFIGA
T2 sequence (P28028 whole entry V585E): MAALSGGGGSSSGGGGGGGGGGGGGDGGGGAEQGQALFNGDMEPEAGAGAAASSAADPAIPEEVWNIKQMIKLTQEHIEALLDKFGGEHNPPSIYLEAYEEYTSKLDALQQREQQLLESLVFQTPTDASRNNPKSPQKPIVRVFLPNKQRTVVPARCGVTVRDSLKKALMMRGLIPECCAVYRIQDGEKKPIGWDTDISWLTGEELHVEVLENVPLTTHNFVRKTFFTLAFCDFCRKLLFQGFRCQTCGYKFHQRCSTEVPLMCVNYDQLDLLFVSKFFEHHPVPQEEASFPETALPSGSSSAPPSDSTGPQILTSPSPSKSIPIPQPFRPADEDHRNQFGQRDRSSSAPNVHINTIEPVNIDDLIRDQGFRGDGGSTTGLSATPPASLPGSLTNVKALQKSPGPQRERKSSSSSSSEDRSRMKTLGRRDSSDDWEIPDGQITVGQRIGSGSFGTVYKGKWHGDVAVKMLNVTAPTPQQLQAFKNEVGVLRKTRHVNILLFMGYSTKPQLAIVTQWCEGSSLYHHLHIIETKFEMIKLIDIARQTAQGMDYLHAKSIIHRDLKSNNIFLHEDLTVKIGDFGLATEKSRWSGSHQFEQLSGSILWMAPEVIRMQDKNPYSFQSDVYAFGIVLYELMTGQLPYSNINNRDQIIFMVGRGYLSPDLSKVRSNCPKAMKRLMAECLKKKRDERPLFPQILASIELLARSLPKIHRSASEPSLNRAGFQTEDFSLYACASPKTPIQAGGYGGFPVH

SMILES | fold less potent than erlotinib (EGFR IC50) (EGFR) | IC50 (EGFR) | IC50 [1] | IC50 ([2]; Homo sapiens) | IC50 [3] | viability at 96 h, 50 µM [4] | melting point | IC50 [5] | IC50 (BRAF^V600E) | IC50 [6] | fold less potent than compound 3f (GI50) [2] | viability at 96 h, 50 µM (in vitro) | IC50 [2]
Cc1cs/c(=N\Nc2ccc([N+](=O)[O-])cc2[N+](=O)[O-])n1Cc1ccccc1 [Compound 3a, (Z)-3-Benzyl-2-(2-(2,4-Dinitrophenyl)Hydrazineylidene)-4-Methyl-2,3-Dihydrothiazole] | 1.15 fold | 93 ± 8 nM | 48 ± 4 nM | 48 nM | 45 ± 4 nM | 89% | 215 to 217 °C | 48 ± 4 nM | 117 ± 10 nM | 49 ± 4 nM | – | – | –
CCn1c(C)cs/c1=N\Nc1ccc([N+](=O)[O-])cc1[N+](=O)[O-] [Compound 3b, (Z)-2-(2-(2,4-Dinitrophenyl)Hydrazineylidene)-3-Ethyl-4-Methyl-2,3-Dihydrothiazole] | – | – | 80 ± 8 nM | 80 nM | 78 ± 7 nM | – | – | 80 ± 8 nM | – | 82 ± 8 nM | 2.2 fold | 91% | –
C=CCn1c(C)cs/c1=N\Nc1ccc([N+](=O)[O-])cc1[N+](=O)[O-] [Compound 3c, (Z)-3-Allyl-2-(2-(2,4-Dinitrophenyl)Hydrazineylidene)-4-Methyl-2,3-Dihydrothiazole] | – | 98 ± 9 nM | 54 ± 5 nM | > 50 nM | 50 ± 5 nM | 90% | 197 to 198 °C | 54 ± 5 nM | 126 ± 11 nM | 56 ± 5 nM | – | – | 54 nM
Cc1cs/c(=N/Nc2ccc([N+](=O)[O-])cc2[N+](=O)[O-])n1C1CCCCC1 [Compound 3d, (Z)-3-Cyclohexyl-2-(2-(2,4-Dinitrophenyl)Hydrazineylidene)-4-Methyl-2,3-Dihydrothi-Azole] | 1.15 fold | 91 ± 7 nM | 46 ± 4 nM | 46 nM | 43 ± 4 nM | 92% | – | 46 ± 4 nM | 112 ± 10 nM | 47 ± 4 nM | 1.3 fold | – | –
Cc1cs/c(=N\Nc2ccc([N+](=O)[O-])cc2[N+](=O)[O-])n1-c1ccccc1 [Compound 3e, (Z)-2-(2-(2,4-Dinitrophenyl)Hydrazineylidene)-4-Methyl-3-Phenyl-2,3-Dihydrothiazole] | – | – | 72 ± 7 nM | 72 nM | 71 ± 7 nM | – | – | 72 ± 7 nM | – | 74 ± 7 nM | 2 fold | 87% | –
Cc1ccc(S(=O)(=O)N/N=c2\scc(C)n2-c2ccccc2)cc1 [Compound 3g, (Z)-4-Methyl-N′-(4-Methyl-3-Phenylthiazol-2(3H)-Ylidene) Benzenesulfonohydrazide] | – | – | 58 ± 5 nM | 60 nM | 58 ± 5 nM | 90% | 193 to 194 °C | 60 ± 6 nM | – | 63 ± 6 nM | – | – | –
C=CCn1c(C)cs/c1=N\NS(=O)(=O)c1ccc(C)cc1 [Compound 3h, (Z)-N′-(3-Allyl-4-Methylthiazol-2(3H)-Ylidene)-4-Methyl Benzenesulfonohydrazide] | – | – | 65 ± 6 nM | 65 nM | 63 ± 6 nM | 92% | 236 to 238 °C | 65 ± 6 nM | – | 68 ± 6 nM | – | – | –
CCn1c(C)cs/c1=N\NS(=O)(=O)c1ccc(C)cc1 [Compound 3i, (Z)-N′-(3-Ethyl-4-Methylthiazol-2(3H)-Ylidene)-4-Methyl Benzenesulfonohydrazide] | – | – | 86 ± 8 nM | 86 nM | 84 ± 8 nM | 95% | 236 to 238 °C | 86 ± 8 nM | – | 89 ± 8 nM | – | – | –
C#Cc1cccc(Nc2ncnc3cc(OCCOC)c(OCCOC)cc23)c1 [Erlotinib, reference compound] | – | – | 30 ± 3 nM | – | 30 ± 3 nM | – | – | 30 ± 3 nM | – | 40 ± 3 nM | – | – | –
